# In ChEMBL document CHEMBL4261500, “New tricks for human farnesyltransferase inhibitor: cancer and beyond” (Medchemcomm, 2017):
# Columns and labels:
# [1] = target: Protein farnesyltransferase (Homo sapiens, UniProt P49354+P49356); assay: Inhibition of human EC17 cell-derived FTase using recombinant GST-tagged H-Ras/(3H)-FPP as substrate incubated for 1 hr by liquid scintillation counting method; format: protein-complex assay
# A-431 = assay: Cytotoxicity against human A431 cells; format: cell-based
# [2] = target: Protein farnesyltransferase (Rattus norvegicus, UniProt Q02293+Q04631); assay: Inhibition of recombinant rat FTase alpha/beta expressed in Escherichia coli using NBD-FPP/GST-tagged H-Ras as substrate incubated for 2 hrs by SDS-PAGE method
# A549 = assay: Cytotoxicity against human A549 cells assessed as decrease in cell viability after 48 hrs by MTT assay; format: functional, cell-based; conditions: A549, 48 h
SMILES,IC50 [1] [nM],IC50 (A-431) [nM],IC50 [2] [nM],IC50 (A549) [nM]
CC[C@@]1(O)C[C@H](O[C@H]2C[C@H]([N+](C)(C)Cc3ccccc3)[C@@H](O[C@H]3C[C@H](O)[C@H](O[C@H]4CCC(=O)[C@H](C)O4)[C@H](C)O3)[C@H](C)O2)c2c(cc3c(c2O)C(=O)c2c(O)cccc2C3=O)[C@H]1C(=O)OC,860,> 10000,,
COC1=C(OC)[C@H](O)[C@H](C/C=C(\C)CC/C=C(\C)CCC=C(C)C)[C@@H](C)C1=O [ANTROQUINONOL],,,2990,3240
